According to US7208140B2, “Trimeric macrocyclic substituted benzene derivatives” (Schering Aktiengesellschaft, priority 2003, dated 2007):
Values joined by “and” are separate entries in the source; they are usually repeats but may differ in a detail not shown here. Equal values may be shown once.

Experiments:
[1] = system: Epithelial cell line MDCK; assay: Neutral red test of cell viability in epithelial cells of the distal renal tubule; assay type: cell-based, canine; conditions: 50% reduction of cell viability after 24 hours
Procedure: To determine the IC-50, the neutral red test was used in epithelial cells of the distal renal tubule. In addition, this test is very helpful for predicting with high accuracy the LD-50 values of newly synthesized compounds.
Epithelial cell line MDCK of the renal distal renal tubule of a canine kidney (ECACC No. 85011435) was incubated from 10,000 cells/well in Alpha MEM Eagle (10% fetal bovine serum) at 37° C. and 5% CO2, 95% atmospheric humidity for 20 hours with various Examples 1B, 3F and 5F. Neutral red was used as an indicator for cell viability and for measuring lyosomal integrity and employed to determine those contrast medium concentrations in which a 50% reduction of cell viability (IC-50) occurred after 24 hours.
Four independent replicates were tested for each concentration of contrast medium. […] The latter is a reference compound in clinical practice and a contrast medium with proven excellent compatibility. The highest compatibility was found for Example 3F with 1170 μmol of I eq/ml.

[2] = Distribution coefficient in 1-butanol and tris-HCl buffer; assay type: physicochemical; conditions: for Distribution Coefficient of Butanol/Water: 1-butanol and tris-HCl buffer at pH 7.6
Procedure: The distribution coefficient of Example 3F was determined in comparison to Gadovist, iopromide and iotrolan in 1-butanol and tris-HCl buffer at pH 7.6.

Wistar rats = assay: MRT studies (angiography and organ visualization) of rats after intravenous injection; assay type: in vivo, rat; conditions: i.v.
Procedure: The same substance (IB) was examined with the aid of magnetic resonance tomography (MRT) as a contrast medium.
The MRT studies were performed on a 1.5 T device (Siemens Symphonie with 40 mT/m gradients). 400 g Wistar rats were examined with T1-weighted image sequences (angiography TR 2.54 ms, TE 1.12 ms und α=40° or organ visualization TR 54 ms, TE 4.8 ms and α=40°). The angiography (MRA, FIG. 3) was from 0–60 seconds p.i., and the organ visualization (FIGS. 4a and b) was prepared 15 minutes after the injection. Substance 1B was formulated as an aqueous solution at a concentration of 0.17 mol/l (corresponds to 0.5 mol of Gd/l) and was intravenously injected in a dose of 0.03 mmol of substance or 0.1 mmol of Gd/kg.

Male Wistar rats = assay: CT studies (computer tomography) of rats after intravenous injection; assay type: in vivo, rat; conditions: i.v.
Procedure: By way of example, the suitability of the described compound class was examined in Example 1B with the aid of computer tomography (CT) of rats. For the CT studies, a Siemens Somatom CR was available. The 5-second image was prepared with a layer thickness of 2 mm and a tube voltage of 125 kV. Substance 1B was formulated as an aqueous solution at a concentration of 0.17 mol/l (corresponds to 145 mg (1+Gd)/ml.
Male Wistar rats (400 g of body weight) were scanned before (FIG. 1a) and after intravenous injection (FIG. 1) of 1B in a dose of 0.15 mmol/kg (corresponds to 127 mg of (I+Gd)/kg).
This early phase reflects the blood perfusion of the renal cortex.

Row | SMILES | IC50 [1] | Distribution Coefficient of Butanol/Water [2] | other results
1 | O=C([O-])CN1CCN(CC(=O)[O-])CCN([C@H](CO)[C@H](O)CO)CCN(CC(=O)[O-])CC1.[Gd+3] (racemic) [Gadobutrol, reference compound] | 153 μmol of I eq/ml | 0.006 ± 0.0007 | –
2 | CC(C(=O)NCC(=O)NCCNC(=O)c1c(I)c(C(=O)NCCNC(=O)CNC(=O)C(C)N2CCN(CC(=O)[O-])CCN(CC(=O)[O-])CCN(CC(=O)[O-])CC2)c(I)c(C(=O)NCCNC(=O)CNC(=O)C(C)N2CCN(CC(=O)[O-])CCN(CC(=O)[O-])CCN(CC(=O)[O-])CC2)c1I)N1CCN(CC(=O)[O-])CCN(CC(=O)[O-])CCN(CC(=O)[O-])CC1.[Gd+3].[Gd+3].[Gd+3] (stereo not drawn) [Example 1B, 1,3,5-Triiodotrimesic acid-N,N,N-tris-(3,6-diaza-4,7-dioxo-8-methyloctane-1,8-diyl-{10-[1,4,7-tris-(carboxylatomethyl)-1,4,7,10-tetraazacyclododecanyl, Gd-complex]})amide] | 930 μmol of I eq/ml | – | MRA visualization of arteries and heart (Wistar rats; 0.03 mmol of substance or 0.1 mmol of Gd/kg, 1.5 T, 0-60 seconds p.i.): excellent ability to visualize the large arteries (aorta, femoral artery) as well as the heart; MRT whole-body image, organ contrasting (Wistar rats; 0.1 mmol of Gd/kg, 1.5 T, 15 minutes after the injection): clear contrasting of liver (L) as well as kidneys; renal elimination (ureter visualized in MRT) (Wistar rats; 0.1 mmol of Gd/kg, 15 minutes after the injection): quick renal elimination; CT contrasting of vessels and renal cortex (early phase) (Male Wistar rats; 0.15 mmol/kg (127 mg of (I+Gd)/kg), 125 kV): very clear contrasting of the blood-conveying vessels (A) and the renal cortex (N); renal excretion (contrasting of renal pelvis in CT) (Male Wistar rats; 0.15 mmol/kg, 15 minutes later): quick renal excretion
3 | O=C([O-])CN1CCN(CC(=O)[O-])CCN(CC(=O)NCCNC(=O)c2c(I)c(C(=O)NCCNC(=O)CN3CCN(CC(=O)[O-])CCN(CC(=O)[O-])CCN(CC(=O)[O-])CC3)c(I)c(C(=O)NCCNC(=O)CN3CCN(CC(=O)[O-])CCN(CC(=O)[O-])CCN(CC(=O)[O-])CC3)c2I)CCN(CC(=O)[O-])CC1.[Gd+3].[Gd+3].[Gd+3] [Example 3F, 2,4,6-Triiodotrimesic acid-N,N,N-tris-(3-aza-4-oxopentane-1,5-diyl-{10-[1,4,7-tris-(carboxylatomethyl)-1,4,7,10-tetrazacyclododecanyl, Gdcomplex]})amide] | 1170 μmol of I eq/ml | 0.0002 and 0.0002 ± 0.0001 | –
4 | O=C([O-])CN1CCN(CC(=O)[O-])CCN(CC(O)CNC(=O)c2c(I)c(C(=O)NCC(O)CN3CCN(CC(=O)[O-])CCN(CC(=O)[O-])CCN(CC(=O)[O-])CC3)c(I)c(C(=O)NCC(O)CN3CCN(CC(=O)[O-])CCN(CC(=O)[O-])CCN(CC(=O)[O-])CC3)c2I)CCN(CC(=O)[O-])CC1.[Gd+3].[Gd+3].[Gd+3] (stereo not drawn) [Example 5G, 1,3.5-Triiodotrimesic acid-N,N,N-tris-(2-hydroxypropane-1,3-diyl-{10-[1,4,7-tris-(carboxylatomethyl)-1,4,7,10-tetraazacyclododecanyl]}, Gdcomplex)amide] | 788 μmol of I eq/ml | – | –
5 | COCC(=O)Nc1c(I)c(C(=O)NCC(O)CO)c(I)c(C(=O)N(C)CC(O)CO)c1I (stereo not drawn) [Iopromide] | – | 0.051 ± 0.003 | distribution coefficient of butanol/water relative to Example 3F ([2]; 0.051 vs. 0.0002): ≤ 255 ×; Distribution Coefficient of Butanol/Water ([2]; listed as lopromide): 0.051
6 | CN(C(=O)CC(=O)N(C)c1c(I)c(C(=O)NC(CO)C(O)CO)c(I)c(C(=O)NC(CO)C(O)CO)c1I)c1c(I)c(C(=O)NC(CO)C(O)CO)c(I)c(C(=O)NC(CO)C(O)CO)c1I (stereo not drawn) [Iotrolan] | – | 0.0065 ± 0.002 | –
